Measured values taken from US9732070B2, “Protein kinase C inhibitors and uses thereof” (Rigel Pharmaceuticals, Inc., priority 2009, dated 2017).

What follows are molecules tested on Human primary T cells (assay: IL-2 ELISA, human primary T cell, anti-CD3+CD28 stimulation). Settings: IL-2 quantified by ELISA; human primary T cells stimulated with αCD3 and αCD28, 24 hours.
Type: cell-based
Method: Human primary T cell isolation and culture: Human primary T cells were prepared as follows. Whole blood was obtained from a healthy volunteer, mixed 1:1 with PBS, layered on to Ficoll Hypaque (Amersham Pharmacia Biotech, Piscataway, N.J., Catalog #17-1440-03) in 2:1 blood/PBS:ficoll ratio and centrifuged for 30 minutes at 4° C. at 1750 rpm. The cells at the serum: ficoll interface were recovered and washed twice with 5 volumes of PBS. These freshly isolated human peripheral blood mononuclear cells were cultured in Yssel's medium containing 40 U/mL IL2 in a flask pre-coated with 1 μg/mL αCD3 and 5 μg/mL αCD28 (Anti-Human CD3, BD Pharmingen Catalog #555336, Anti-Human CD28, Beckman Coulter Catalog #IM1376). The cells were stimulated for 3-4 days, then transferred to a fresh flask and maintained in RPMI (RPMI-1640 with L-Glutamine; Mediatech, Inc., Herndon Va., cat. #10-040-CM) with 10% FBS and 40 U/mL IL-2. The primary T-cells were then washed twice with PBS to remove the IL-2.
Primary T cell stimulation and IL2 ELISA: Human primary T cells (100,000 cells per well) were pre-incubated with or without test compound in Yssel's medium for 1 hour at 37° C. Cells were then stimulated by transferring them to round-bottom 96-well plates pre-coated with 1 μg/ml αCD3 and 5 μg/ml αCD28. For counter assay, cells were instead stimulated by adding 8× stock solutions of PMA and ionomycin in Yssels (for final concentrations of 0.5 ng/ml PMA and 0.1 uM ionomycin, both from Calbiochem). Cells were incubated at 37° C. for 24 hours before 100 μL supernatants were harvested for quantification of IL-2 by ELISA using Human IL-2 Duoset ELISA Kit from R and D Systems, Cat. # DY202E.

IC50, < 500 nM:
CC(C)Oc1c(-n2nnn(C)c2=O)cc(Nc2ncc(F)c(NC3CC(C)(C)NC(C)(C)C3)n2)cc1C(F)(F)F [I-51, N2-(4-isopropoxy-3-(4-methyl-4,5-dihysro-5-oxo-1H-tetrazol-1-yl)-5-trifluoromethylphenyl)-5-fluoro-N4-(2,2,6,6-tetramethylpiperidin-4-yl)pyrimidine-2,4-diamine]
CC(C)Oc1c(-n2nnn(C)c2=O)cc(Nc2ncc(F)c(NC3CC(C)(C)N(C)C(C)(C)C3)n2)cc1C(F)(F)F [I-52, N2-(4-isopropoxy-3-(4-methyl-4,5-dihysro-5-oxo-1H-tetrazol-1-yl)-5-trifluoromethylphenyl)-5-fluoro-N4-(1,2,2,6,6-pentamethylpiperidin-4-yl)pyrimidine-2,4-diamine]

Same assay, conditions: T-cell; IL-2 quantified by ELISA; human primary T cells stimulated with αCD3 and αCD28, 24 hours

IC50, 510 to 2990 nM:
CN1C(C)(C)CC(Nc2nc(Nc3cccc(-n4nnn(C)c4=O)c3)ncc2F)CC1(C)C [I-12, 5-fluoro-n2-[3-(4-methyl)-1,2,3,4-tetrazol-5-one-1-yl]phenyl-n4-(1,2,2,6,6-pentamethylpiperidin-4-yl)-2,4-pyrimidinediamine]
Cn1nnn(-c2cccc(Nc3ncc(F)c(NC4CC(C)(C)NC(C)(C)C4)n3)c2)c1=O [I-13]
Cn1nnn(-c2cc(Cl)cc(Nc3ncc(F)c(NC4CC(C)(C)NC(C)(C)C4)n3)c2)c1=O [I-37, N2-{5-chloro-[3-(4-methyl)-1,2,3,4-tetrazol-5-one-1-yl]}phenyl-5-fluoro-N4-(2,2,6,6-tetramethylpiperidin-4-yl)-2,4-pyrimidinediamine]

IC50, < 500 nM:
Cn1nnn(-c2cc(Nc3ncc(C#N)c(NC4CC(C)(C)NC(C)(C)C4)n3)cc(C(F)(F)F)c2C2CC2)c1=O [I-41, 5-cyano-N2-{4-cyclopropyl-5-trifluoromethyl-[3-(4-methyl)-1,2,3,4-tetrazol-5-one-1-yl]}phenyl-N4-(2,2,6,6-tetramethylpiperidin-4-yl)-2,4-pyrimidinediamine]
Cc1cc(Nc2ncc(F)c(NC3CC(C)(C)NC(C)(C)C3)n2)cc(-n2nnn(C)c2=O)c1C [I-46, N2-(4,5-dimethyl-3-(4-methyl-4,5-dihydro-5-oxo-1H-tetrazol-1-yl)phenyl)-5-fluoro-N4-(2,2,6,6-tetramethylpiperidin-4-yl)pyrimidine-2,4-diamine]
Cn1nnn(-c2cc(Nc3ncc(F)c(NC4CC(C)(C)NC(C)(C)C4)n3)cc(C3CC3)c2)c1=O [I-35, N2-{5-cyclopropyl-[3-(4-methyl)-1,2,3,4-tetrazol-5-one-1-yl]}phenyl-5-fluoro-N4-(2,2,6,6-tetramethylpiperidin-4-yl)-2,4-pyrimidinediamine]
Cn1nnn(-c2cc(Nc3ncc(C#N)c(NC4CC(C)(C)NC(C)(C)C4)n3)cc(C3CC3)c2F)c1=O [I-44, 5-cyano-N2-{5-cyclopropyl-4-fluoro-[3-(4-methyl)-1,2,3,4-tetrazol-5-one-1-yl]}phenyl-N4-(2,2,6,6-tetramethylpiperidin-4-yl)-2,4-pyrimidinediamine]
COC(=O)c1cc(Nc2ncc(F)c(NC3CC(C)(C)N(C)C(C)(C)C3)n2)cc(-n2nnn(C)c2=O)c1C [I-63, Methyl 5-((5-fluoro-4-((1,2,2,6,6-pentamethylpiperidin-4-yl)amino)-2-pyrimidinyl)amino)-2-methyl-3-(4-methyl-4,5-dihysro-5-oxo-1H-tetrazol-1-yl)benzoate]
Cc1c(Cl)cc(Nc2ncc(F)c(NC3CC(C)(C)NC(C)(C)C3)n2)cc1-n1nnn(C)c1=O [I-55, N2-(5-chloro-4-methyl-3-(4-methyl-4,5-dihysro-5-oxo-1H-tetrazol-1-yl)phenyl)-5-fluoro-N4-(2,2,6,6-tetramethylpiperidin-4-yl)pyrimidine-2,4-diamine]
Cn1nnn(-c2cc(Nc3ncc(F)c(NC4CC(C)(C)NC(C)(C)C4)n3)ccc2Cl)c1=O [I-30, N2-{4-chloro-[3-(4-methyl)-1,2,3,4-tetrazol-5-one-1-yl]}phenyl-5-fluoro-N4-(2,2,6,6-tetramethylpiperidin-4-yl)-2,4-pyrimidinediamine]
Cn1nnn(-c2cc(Nc3ncc(F)c(NC4CC(C)(C)NC(C)(C)C4)n3)ccc2C2CC2)c1=O [I-33, N2-{4-cyclopropyl-[3-(4-methyl)-1,2,3,4-tetrazol-5-one-1-yl]}phenyl-5-fluoro-N4-(2,2,6,6-tetramethylpiperidin-4-yl)-2,4-pyrimidinediamine]
COc1cc(Nc2ncc(F)c(NC3CC(C)(C)NC(C)(C)C3)n2)cc(-n2nnn(C)c2=O)c1 [I-32, N2-{5-methody-[3-(4-methyl)-1,2,3,4-tetrazol-5-one-1-yl]}phenyl-5-fluoro-N4-(2,2,6,6-tetramethylpiperidin-4-yl)-2,5-pyrimidinediamine]
Cn1nnn(-c2cc(Nc3ncc(F)c(NC4CC(C)(C)NC(C)(C)C4)n3)ccc2OC(C)(C)C(F)(F)F)c1=O [I-19, 1-(2-(1,1,1-trifluoro-2-methylpropan-2-yloxy)-5-(4-(2,2,6,6-tetramethylpiperidin-4-ylamino)-5-fluoropyrimidin-2-ylamino)phenyl)-4-methyl-1H-tetrazol-5(4H)-one]
Cc1ccc(Nc2ncc(F)c(NC3CC(C)(C)NC(C)(C)C3)n2)cc1-n1nnn(C)c1=O [I-9, 5-fluoro-n2-{4-methyl-[3-(4-methyl)-1,2,3,4-tetrazol-5-one-1-yl]}phenyl-n4-(2,2,6,6-tetramethylpiperidin-4-yl)-2,4-pyrimidinediamine]
Cn1nnn(-c2cc(F)cc(Nc3ncc(F)c(NC4CC(C)(C)NC(C)(C)C4)n3)c2)c1=O [I-23, 1-(3-(4-(2,2,6,6-tetramethylpiperidin-4-ylamino)-5-fluoropyrimidin-2-ylamino)-5-fluorophenyl)-4-methyl-1H-tetrazol-5(4H)-one]
